The source made the active and inactive calls. No cut-off for these calls is given here.
Assays:
SARS-CoV-2 [1] = assay: Antiviral activity against SARS-CoV-2 Omicron BA.1 infected in African green monkey Vero E6 cells assessed as inhibition of plaque formation at 50 uM incubated for 1 hr followed by virus-drug mixture washout and further addition of media without compound for 5 to 7 days by crystal violet staining based assay relative to control; assay type: functional, Severe acute respiratory syndrome coronavirus 2; conditions: for inhibition at 50 µM: Severe acute respiratory syndrome coronavirus 2, Omicron BA.1, Vero C1008
SARS-CoV-2 [2] = assay: Antiviral activity against SARS-CoV-2 Delta infected in African green monkey Vero E6 cells assessed as inhibition of plaque formation at 5 uM incubated for 1 hr followed by virus-drug mixture washout and further addition of media without compound for 5 to 7 days by crystal violet staining based assay; assay type: functional, organism-based; conditions: Severe acute respiratory syndrome coronavirus 2
SARS-CoV-2 [3] = assay: Antiviral activity against SARS-CoV-2 Delta infected in African green monkey Vero E6 cells assessed as inhibition of plaque formation at 50 uM incubated for 1 hr followed by virus-drug mixture washout and further addition of media without compound for 5 to 7 days by crystal violet staining based assay relative to control; assay type: functional, Severe acute respiratory syndrome coronavirus 2; conditions: for inhibition at 50 µM: Severe acute respiratory syndrome coronavirus 2, Delta, Vero C1008
SARS-CoV-2 [4] = assay: Antiviral activity against SARS-CoV-2 Delta infected in African green monkey Vero E6 cells assessed as inhibition of plaque formation at 0.5 uM incubated for 1 hr followed by virus-drug mixture washout and further addition of media without compound for 5 to 7 days by crystal violet staining based assay; assay type: functional, organism-based; conditions: Severe acute respiratory syndrome coronavirus 2
SARS-CoV-2 [5] = assay: Antiviral activity against SARS-CoV-2 Omicron BA.1 infected in African green monkey Vero E6 cells assessed as inhibition of plaque formation at 5 uM incubated for 1 hr followed by virus-drug mixture washout and further addition of media without compound for 5 to 7 days by crystal violet staining based assay relative to control; assay type: functional, Severe acute respiratory syndrome coronavirus 2; conditions: for inhibition at 5 µM: Severe acute respiratory syndrome coronavirus 2, Omicron BA.1, Vero C1008
[6] = Cytotoxicity against African green monkey Vero E6 cells assessed as reduction in cell viability incubated for 48 hrs by MTT assay; assay type: toxicity, cell-based, Vero C1008; conditions: chlorocebus sabaeus
SARS-CoV-2 [7] = assay: Antiviral activity against SARS-CoV-2 Omicron BA.1 infected in African green monkey Vero E6 cells assessed as inhibition of plaque formation at 0.5 uM incubated for 1 hr followed by virus-drug mixture washout and further addition of media without compound for 5 to 7 days by crystal violet staining based assay relative to control; assay type: functional, Severe acute respiratory syndrome coronavirus 2; conditions: for inhibition at 0.5 µM: Severe acute respiratory syndrome coronavirus 2, Omicron BA.1, Vero C1008
SARS-CoV-2 [8] = assay: Synergistic antiviral activity against SARS-CoV-2 Delta infected in Vero E6 cells incubated for 1 hr in presence of ivermectin followed by virus-drug mixture washout and further addition of media without compound for 5 to 7 days by crystal violet staining based assay; assay type: functional, organism-based; conditions: Severe acute respiratory syndrome coronavirus 2
SARS-CoV-2 [9] = assay: Synergistic antiviral activity against SARS-CoV-2 Omicron BA.1 infected in Vero E6 cells incubated for 1 hr in presence of ivermectin followed by virus-drug mixture washout and further addition of media without compound for 5 to 7 days by crystal violet staining based assay; assay type: functional, organism-based; conditions: Severe acute respiratory syndrome coronavirus 2
SARS-CoV-2 [10] = assay: Antiviral activity against SARS-CoV-2 Delta infected in African green monkey Vero E6 cells assessed as inhibition of plaque formation at 50 uM incubated for 1 hr followed by virus-drug mixture washout and further addition of media without compound for 5 to 7 days by crystal violet staining based assay; assay type: functional, organism-based; conditions: Severe acute respiratory syndrome coronavirus 2
SARS-CoV-2 [11] = assay: Antiviral activity against SARS-CoV-2 Omicron BA.1 infected in African green monkey Vero E6 cells assessed as inhibition of plaque formation at 0.5 uM incubated for 1 hr followed by virus-drug mixture washout and further addition of media without compound for 5 to 7 days by crystal violet staining based assay; assay type: functional, organism-based; conditions: Severe acute respiratory syndrome coronavirus 2
SARS-CoV-2 [12] = assay: Antiviral activity against SARS-CoV-2 Omicron BA.1 infected in African green monkey Vero E6 cells assessed as inhibition of plaque formation at 100 uM incubated for 1 hr followed by virus-drug mixture washout and further addition of media without compound for 5 to 7 days by crystal violet staining based assay relative to control; assay type: functional; conditions: Severe acute respiratory syndrome coronavirus 2, Omicron BA.1, Vero C1008
SARS-CoV-2 [13] = assay: Antiviral activity against SARS-CoV-2 Delta infected in African green monkey Vero E6 cells assessed as inhibition of plaque formation at 100 uM incubated for 1 hr followed by virus-drug mixture washout and further addition of media without compound for 5 to 7 days by crystal violet staining based assay relative to control; assay type: functional; conditions: Severe acute respiratory syndrome coronavirus 2, Delta, Vero C1008
SARS-CoV-2 [14] = assay: Antiviral activity against SARS-CoV-2 infected in African green monkey Vero E6 cells preincubated for 1 hr followed by addition of fresh medium containing compounds and measured after 24 hrs by qRT-PCR analysis; assay type: functional, organism-based; conditions: Severe acute respiratory syndrome coronavirus 2, Vero C1008
SARS-CoV-2 [15] = assay: Synergistic antiviral activity against SARS-CoV-2 Delta infected in Vero E6 cells assessed as reduction in plaque formation by measuring combination index at ED50 incubated for 1 hr in presence of ivermectin followed by virus-drug mixture washout and further addition of media without compound for 5 to 7 days by Chou-Talalay method; assay type: functional, Severe acute respiratory syndrome coronavirus 2
SARS-CoV-2 [16] = assay: Antiviral activity against SARS-CoV-2 Omicron BA.1 infected in African green monkey Vero E6 cells assessed as inhibition of plaque formation incubated for 1 hr followed by virus-drug mixture washout and further addition of media without compound for 5 to 7 days by crystal violet staining based assay; assay type: functional, organism-based; conditions: Severe acute respiratory syndrome coronavirus 2, Omicron BA.1, Vero C1008
SARS-CoV-2 [17] = assay: Antiviral activity against SARS-CoV-2 Delta infected in African green monkey Vero E6 cells assessed as inhibition of plaque formation incubated for 1 hr followed by virus-drug mixture washout and further addition of media without compound for 5 to 7 days by crystal violet staining based assay; assay type: functional, organism-based; conditions: Severe acute respiratory syndrome coronavirus 2, Delta, Vero C1008
[18] = biological target: Spike glycoprotein (Severe acute respiratory syndrome coronavirus 2) (UniProt P0DTC2); assay: Binding affinity to NTA chip immobilised recombinant SARS-CoV-2 Delta spike protein RBD at 50 uM measured for 500 secs by SPR analysis; conditions: time 500.0 sec
SARS-CoV-2 [19] = assay: Synergistic antiviral activity against SARS-CoV-2 Omicron BA.1 infected in Vero E6 cells assessed as reduction in plaque formation by measuring combination index at ED50 incubated for 1 hr in presence of ivermectin followed by virus-drug mixture washout and further addition of media without compound for 5 to 7 days by Chou-Talalay method; assay type: functional, Severe acute respiratory syndrome coronavirus 2
SARS-CoV-2 [20] = assay: Antiviral activity against SARS-CoV-2 Delta infected in African green monkey Vero E6 cells assessed as inhibition of plaque formation at 5 uM incubated for 1 hr followed by virus-drug mixture washout and further addition of media without compound for 5 to 7 days by crystal violet staining based assay relative to control; assay type: functional, Severe acute respiratory syndrome coronavirus 2; conditions: for inhibition at 5 µM: Severe acute respiratory syndrome coronavirus 2, Delta, Vero C1008
SARS-CoV-2 [21] = assay: Antiviral activity against SARS-CoV-2 Delta infected in African green monkey Vero E6 cells assessed as inhibition of plaque formation at 0.5 uM incubated for 1 hr followed by virus-drug mixture washout and further addition of media without compound for 5 to 7 days by crystal violet staining based assay relative to control; assay type: functional, Severe acute respiratory syndrome coronavirus 2
SARS-CoV-2 [22] = assay: Antiviral activity against SARS-CoV-2 Omicron BA.1 infected in African green monkey Vero E6 cells assessed as inhibition of plaque formation at 50 uM incubated for 1 hr followed by virus-drug mixture washout and further addition of media without compound for 5 to 7 days by crystal violet staining based assay; assay type: functional, organism-based; conditions: Severe acute respiratory syndrome coronavirus 2

| Structure (SMILES) | inhibition at 50 µM (SARS-CoV-2 [1]) | inhibition (SARS-CoV-2 [2]) | inhibition at 50 µM (SARS-CoV-2 [3]) | inhibition (SARS-CoV-2 [4]) | inhibition at 5 µM (SARS-CoV-2 [5]) | CC50 at 48 h [6] | other results |
| --- | --- | --- | --- | --- | --- | --- | --- |
| C#CCNC(=O)[C@@H](Cc1ccc(O)c(O)c1)OC(=O)/C=C/c1ccc(O)c(O)c1 | 26% | inactive | 30% | inactive | 17% | > 100 µM | inhibition at 0.5 µM (SARS-CoV-2 [7]): 17% |
| COc1cc(C(=O)O)cc(OC)c1O |  |  |  |  |  |  | Activity (SARS-CoV-2 [8]): inactive; Activity (SARS-CoV-2 [9]): inactive; inhibition (SARS-CoV-2 [10]): Active |
| O=C(/C=C/c1ccc(O)c(O)c1)O[C@H](Cc1ccc(O)c(O)c1)C(=O)NCc1ccco1 | 66% | inactive | 20% | inactive | 29% | > 100 µM | inhibition (SARS-CoV-2 [11]): inactive |
| O=C(/C=C/c1ccc(O)c(O)c1)O[C@H](Cc1ccc(O)c(O)c1)C(=O)O [ROSMARINIC ACID] | 33% |  | 7% |  |  |  | inhibition at 100 µM (SARS-CoV-2 [12]): 40%; inhibition at 100 µM (SARS-CoV-2 [13]): 9% |
| O=C(O)[C@H](O)Cc1ccc(O)c(O)c1 | 40% |  | 19% |  |  |  | inhibition at 100 µM (SARS-CoV-2 [12]): 40%; EC50 (SARS-CoV-2 [14]): 0.97 µM; inhibition at 100 µM (SARS-CoV-2 [13]): 19% |
| COc1c(O)c(OC)c2oc(-c3ccc(O)cc3)cc(=O)c2c1O |  |  |  |  |  |  | inhibition (SARS-CoV-2 [10]): Active |
| COC(=O)[C@@H](Cc1ccc(O)c(O)c1)OC(=O)/C=C/c1ccc(O)c(O)c1 [METHYL ROSMARINATE] |  |  |  |  |  | > 1000 µM | CI (SARS-CoV-2 [15]): 1.74; IC50 (SARS-CoV-2 [16]): 57 µM; IC50 (SARS-CoV-2 [17]): 88.9 µM; Activity [18]: inactive; CI (SARS-CoV-2 [19]): 1.67; inhibition (SARS-CoV-2 [10]): Active |
| O=C(/C=C/c1ccc(O)c(O)c1)O[C@H](Cc1ccc(O)c(O)c1)C(=O)N1CCOCC1 | 23% | inactive | 8% | inactive | 19% | > 100 µM | inhibition (SARS-CoV-2 [11]): inactive |
| CCCCCCCCCCCCNC(=O)[C@@H](Cc1ccc(O)c(O)c1)OC(=O)/C=C/c1ccc(O)c(O)c1 |  |  |  |  |  | 17.5 µM | inhibition (INH) (SARS-CoV-2 [20]): 78%; IC50 (SARS-CoV-2 [16]): 0.77 µM; IC50 (SARS-CoV-2 [17]): 0.93 µM; inhibition (INH) (SARS-CoV-2 [21]): 15%; inhibition (INH) (SARS-CoV-2 [5]): 54%; Activity [18]: inactive; inhibition (SARS-CoV-2 [10]): inactive; inhibition (INH) (SARS-CoV-2 [7]): 17%; inhibition (SARS-CoV-2 [22]): inactive |
| COCCNC(=O)[C@@H](Cc1ccc(O)c(O)c1)OC(=O)/C=C/c1ccc(O)c(O)c1 | 29% | inactive | 23% | inactive | 13% | > 100 µM | inhibition (SARS-CoV-2 [11]): inactive |
| O=C(/C=C/c1ccc(O)c(O)c1)O[C@H](Cc1ccc(O)c(O)c1)C(=O)NCCCCCCCl | 66% |  | 75% | inactive | 29% | > 100 µM | inhibition at 5 µM (SARS-CoV-2 [20]): 18%; inhibition at 0.5 µM (SARS-CoV-2 [7]): 14% |
| CCCCCCNC(=O)[C@@H](Cc1ccc(O)c(O)c1)OC(=O)/C=C/c1ccc(O)c(O)c1 | 77% |  | 95% | inactive | 21% | > 100 µM | inhibition at 5 µM (SARS-CoV-2 [20]): 23%; inhibition at 0.5 µM (SARS-CoV-2 [7]): 21% |
| O=C(O)/C=C/c1ccc(O)c(O)c1 [CAFFEIC ACID] | 36% |  | 23% |  |  |  | inhibition at 100 µM (SARS-CoV-2 [12]): 42%; inhibition at 100 µM (SARS-CoV-2 [13]): 29% |
| O=C(/C=C/c1ccc(O)c(O)c1)O[C@H](Cc1ccc(O)c(O)c1)C(=O)N1CCCCC1 | 67% | inactive | 33% | inactive | 38% | > 100 µM | inhibition at 0.5 µM (SARS-CoV-2 [7]): 24% |
| CCc1cccc(NC(=O)[C@@H](Cc2ccc(O)c(O)c2)OC(=O)/C=C/c2ccc(O)c(O)c2)c1 |  |  |  |  |  | 50.7 µM | inhibition (INH) (SARS-CoV-2 [1]): 100%; inhibition (INH) (SARS-CoV-2 [20]): 53%; inhibition (INH) (SARS-CoV-2 [3]): 100%; IC50 (SARS-CoV-2 [16]): 2.7 µM; IC50 (SARS-CoV-2 [17]): 12.6 µM; inhibition (INH) (SARS-CoV-2 [21]): 14%; inhibition (INH) (SARS-CoV-2 [5]): 57%; Activity [18]: inactive; inhibition (INH) (SARS-CoV-2 [7]): 24% |
| O=C(/C=C/c1ccc(O)c(O)c1)O[C@H](Cc1ccc(O)c(O)c1)C(=O)NCc1ccccc1 | 58% |  | 57% | inactive | 17% | > 100 µM | inhibition at 5 µM (SARS-CoV-2 [20]): 18%; inhibition (SARS-CoV-2 [11]): inactive |

— ChEMBL document CHEMBL5370560, “Isolation of Anti-SARS-CoV-2 Natural Products Extracted from Mentha canadensis and the Semi-synthesis of Antiviral Derivatives” (J Nat Prod, 2023)
